Results taken from patent EP2951180B1, “2,6,7,8 SUBSTITUTED PURINES AS HDM2 INHIBITORS” (Merck Sharp & Dohme Corp., priority 2013, dated 2014).

target: T1, HDM2 (Homo sapiens, UniProt Q00987); experiment: HDM2 FRET assay (inhibition of binding of FITC labeled p53-pocket peptide to HDM2); conditions: Table 11; read-out: FRET IC50
T1 construct: Thioredoxin (N); made in house; host or cells: E. coli strain BL21(DE3)Rosetta
In short: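 Signal is read as the 520/495 nm emission ratio and converted to percent inhibition; nonlinear sigmoidal regression yields IC50. The assay mixes HDM2 (0.5 nM), FITC-p53 peptide (3 nM) and Tb anti-His antibody (0.25 nM) at 0.1% DMSO.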

T1 sequence (Q00987 17-125): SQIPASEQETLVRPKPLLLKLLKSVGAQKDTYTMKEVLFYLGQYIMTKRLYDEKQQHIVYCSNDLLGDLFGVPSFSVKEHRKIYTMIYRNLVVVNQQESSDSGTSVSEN

Q: How did the IC50 turn out when `C[C@@H](Nc1nc(-c2noc(=O)[nH]2)nc2nc(N(C)[C@@H]3CCCC[C@@H]3O)n(C[C@H]3CC[C@H](C)CC3)c12)C1CCC1` (stereo in doubt) [Example 11.132, 3-(6-{[(1R)-1-cyclobutylethyl]amino}-8-{[(1R,2S)-2-hydroxycyclohexyl](methyl)amino}-7-[(trans-4-methylcyclohexyl)methyl]-7H-purin-2-yl)-1,2,4-oxadiazol-5(4H)-one] was run?
A: 25.6 nM

same assay, conditions: Table 21; read-out: FRET IC50

Q: Which IC50 does the source give for `CC(c1ccccc1F)c1nc2nc(-c3noc(=O)[nH]3)nc(N[C@H](C)C3CCC3)c2n1C[C@H]1CC[C@H](C)CC1` (single isomer, unassigned) [Example 21.36] here?
A: 43.1 nM

Q: With `COCC(c1ccccc1)c1nc2nc(-c3noc(=O)[nH]3)nc(N[C@H](C)C3CCC3)c2n1C[C@H]1CC[C@H](C)CC1` (single isomer, unassigned) [Example 21.41, 3-(6-{[(1R)-1-cyclobutylethyl]amino}-8-[(1R or S)-2-methoxy-1-phenylethyl]-7-[(trans-4-methylcyclohexyl)methyl]-7H-purin-2-yl)-1,2,4-oxadiazol-5(4H)-one] as the compound, how does the IC50 read?
A: 3.25 nM

Q: `COCC(c1ccccc1)c1nc2nc(-c3noc(=O)[nH]3)nc(N[C@H](C)C3CCC3)c2n1C[C@H]1CC[C@H](C)CC1` (single isomer, unassigned) [Example 21.42, 3-(6-{[(1R)-1-cyclobutylethyl]amino}-8-[(1S or R)-2-methoxy-1-phenylethyl]-7-[(trans-4-methylcyclohexyl)methyl]-7H-purin-2-yl)-1,2,4-oxadiazol-5(4H)-one] was tested. Which IC50 did it give?
A: 3.41 nM

same assay, conditions: Table 22; read-out: FRET IC50

Q: How did the IC50 turn out when `C[C@@H](Nc1nc(-c2noc(=O)[nH]2)nc2nc(C(C)(O)c3ccccn3)n(C[C@H]3CC[C@H](C)CC3)c12)C1CCC1` (single isomer, unassigned) [Example 22.6] was run?
A: 10.4 nM

Q: Which IC50 does the source give for `C[C@@H](Nc1nc(-c2noc(=O)[nH]2)nc2nc(C(C)(O)c3ccccn3)n(C[C@H]3CC[C@H](C)CC3)c12)C1CCC1` (single isomer, unassigned) [Example 22.7] here?
A: 19.9 nM

Q: With `C[C@@H](Nc1nc(-c2noc(=O)[nH]2)nc2nc(C(C)(O)C(F)(F)F)n(C[C@H]3CC[C@H](C)CC3)c12)C1CCC1` (single isomer, unassigned) [Example 22.12] as the compound, how does the IC50 read?
A: 26.7 nM

Q: With `C[C@@H](Nc1nc(-c2noc(=O)[nH]2)nc2nc(C(C)(O)C(F)(F)F)n(C[C@H]3CC[C@H](C)CC3)c12)C1CCC1` (single isomer, unassigned) [Example 22.13] as the compound, how does the IC50 read?
A: 5.84 nM

Q: With `CC(O)c1nc2nc(-c3noc(=O)[nH]3)nc(N[C@H](C)C3CCC3)c2n1C[C@H]1CC[C@H](C)CC1` (single isomer, unassigned) [Example 22.14] as the compound, how does the IC50 read?
A: 81.1 nM

Q: `CC(O)c1nc2nc(-c3noc(=O)[nH]3)nc(N[C@H](C)C3CCC3)c2n1C[C@H]1CC[C@H](C)CC1` (single isomer, unassigned) [Example 22.15] was tested. Which IC50 did it give?
A: 45.1 nM

Q: `COC(c1ccccc1)c1nc2nc(-c3noc(=O)[nH]3)nc(N[C@H](C)C3CCC3)c2n1C[C@H]1CC[C@H](C)CC1` (single isomer, unassigned) [Example 22.19, 3-(6-{[(1R)-1-cyclobutylethyl]amino}-8-[(R or S)-methoxy(phenyl)methyl]-7-[(trans-4-methylcyclohexyl)methyl]-7H-purin-2-yl)-1,2,4-oxadiazol-5(4H)-one] was tested. Which IC50 did it give?
A: 7.7 nM

Q: How did the IC50 turn out when `COC(c1ccccc1)c1nc2nc(-c3noc(=O)[nH]3)nc(N[C@H](C)C3CCC3)c2n1C[C@H]1CC[C@H](C)CC1` (single isomer, unassigned) [Example 22.20, 3-(6-{[(1R)-1-cyclobutylethyl]amino}-8-[(S or R)-methoxy(phenyl)methyl]-7-[(trans-4-methylcyclohexyl)methyl]-7H-purin-2-yl)-1,2,4-oxadiazol-5(4H)-one] was run?
A: 1.5 nM

Q: `C[C@@H](Nc1nc(-c2noc(=O)[nH]2)nc2nc(C(C)(O)c3ccccc3)n(C[C@H]3CC[C@H](C)CC3)c12)C1CCC1` (single isomer, unassigned) [Example 22.23] was tested. Which IC50 did it give?
A: 6.38 nM

Q: Which IC50 does the source give for `C[C@@H](Nc1nc(-c2noc(=O)[nH]2)nc2nc(C(C)(O)c3ccccc3)n(C[C@H]3CC[C@H](C)CC3)c12)C1CCC1` (single isomer, unassigned) [Example 22.24] here?
A: 33.8 nM

Q: `C[C@@H](Nc1nc(-c2noc(=O)[nH]2)nc2nc(C(O)(c3ccccc3)C(F)(F)F)n(C[C@H]3CC[C@H](C)CC3)c12)C1CCC1` (single isomer, unassigned) [Example 22.25] was tested. Which IC50 did it give?
A: 501 nM

Q: `C[C@@H](Nc1nc(-c2noc(=O)[nH]2)nc2nc(C(O)(c3ccccc3)C(F)(F)F)n(C[C@H]3CC[C@H](C)CC3)c12)C1CCC1` (single isomer, unassigned) [Example 22.28] was tested. Which IC50 did it give?
A: 27.3 nM

Q: `C[C@@H](Nc1nc(-c2noc(=O)[nH]2)nc2nc(C(O)(CO)c3ccccc3)n(C[C@H]3CC[C@H](C)CC3)c12)C1CCC1` (single isomer, unassigned) [Example 22.60] was tested. Which IC50 did it give?
A: 113 nM

Q: How did the IC50 turn out when `C[C@@H](Nc1nc(-c2noc(=O)[nH]2)nc2nc(C(O)(CO)c3ccccc3)n(C[C@H]3CC[C@H](C)CC3)c12)C1CCC1` (single isomer, unassigned) [Example 22.61] was run?
A: 2.8 nM

Q: For `C[C@@H](Nc1nc(-c2noc(=O)[nH]2)nc2nc(C(C)(F)c3ccccc3F)n(C[C@H]3CC[C@H](C)CC3)c12)C1CCC1` (single isomer, unassigned) [Example 22.62], which IC50 is on record?
A: 0.563 nM

Q: Which IC50 does the source give for `C[C@@H](Nc1nc(-c2noc(=O)[nH]2)nc2nc(C(C)(F)c3ccccc3F)n(C[C@H]3CC[C@H](C)CC3)c12)C1CCC1` (single isomer, unassigned) [Example 22.65] here?
A: 22.6 nM

Q: With `Cc1nc(C(C)(F)c2nc3nc(-c4noc(=O)[nH]4)nc(N[C@H](C)C4CCC4)c3n2C[C@H]2CC[C@H](C)CC2)c(C)s1` (single isomer, unassigned) [Example 22.73] as the compound, how does the IC50 read?
A: 4.06 nM

Q: For `Cc1nc(C(C)(F)c2nc3nc(-c4noc(=O)[nH]4)nc(N[C@H](C)C4CCC4)c3n2C[C@H]2CC[C@H](C)CC2)c(C)s1` (single isomer, unassigned) [Example 22.75], which IC50 is on record?
A: 5.48 nM

Q: Which IC50 does the source give for `C[C@@H](Nc1nc(-c2noc(=O)[nH]2)nc2nc(C(C)(F)c3ccccc3)n(C[C@H]3CC[C@H](C)CC3)c12)C1CCC1` (single isomer, unassigned) [Example 22.77] here?
A: 2.95 nM

Q: How did the IC50 turn out when `C[C@@H](Nc1nc(-c2noc(=O)[nH]2)nc2nc(C(C)(F)c3ccccc3)n(C[C@H]3CC[C@H](C)CC3)c12)C1CCC1` (single isomer, unassigned) [Example 22.78] was run?
A: 12.3 nM

same assay, conditions: Table 23; read-out: FRET IC50

Q: With `COC(c1ccccc1)c1nc2nc(-c3noc(=O)[nH]3)nc(-c3cccc(Cl)c3)c2n1C[C@H]1CC[C@H](C)CC1` (single isomer, unassigned) [Example 23.44, 3-{6-(3-chlorophenyl)-8-[methoxy(phenyl)methyl]-7-[(trans-4-methylcyclohexyl)methyl] -7H-purin-2-yl}-1,2,4-oxadiazol-5(4H)-one] as the compound, how does the IC50 read?
A: 4.53 nM

Q: How did the IC50 turn out when `COC(C)(c1ccccc1F)c1nc2nc(-c3noc(=O)[nH]3)nc(-c3cncc(Cl)c3)c2n1C[C@H]1CC[C@H](C)CC1` (single isomer, unassigned) [Example 23.49, 3-{6-(5-chloropyridin-3-yl)-8-[1-(2-fluorophenyl)-1-methoxyethyl]-7-[(trans-4-methylcyclohexyl)methyl]-7H-purin-2-yl}-1,2,4-oxadiazol-5(4H)-one] was run?
A: 0.888 nM
